Assay results reported in paper PMC12118597 (Science Advances, 2025).
Read-outs that look alike come from different tables or passages of the source.

Biological target: SARS-CoV-2 NSP3 macrodomain (Mac1) (Severe acute respiratory syndrome coronavirus 2, UniProt P0DTD1)
Type: binding
Settings: for 1-BDC: PanDDA background density correction factor; for PanDDA run, overall: Hit / PanDDA run, overall: Modeled: P43 crystal form; for Total number of conformations: ligand conformations modeled in the crystal structure; for 2*(1-BDC) (%): occupancy estimate from PanDDA; for Refined ligand occupancy (%): refined crystallographic occupancy
[1] = TRUE = crystal structure with ligand obtained
[2] = site of ligand in X-ray crystal structure
[3] = ligand-bound crystal structure obtained (TRUE)
[4] = site occupied in X-ray crystal structure
[5] = crystal soak 10 mM, TFA/DMSO background map

| Compound | Occupancy difference (refined_occupancy - 2*(1-BDC)) | 1-BDC | X-ray crystal structure [1] | PanDDA run, overall: Hit (crystal soak 10 mM) | PanDDA run, overall: Modeled (crystal soak 10 mM) | PanDDA run, DMSO background map: 1-BDC (crystal soak 10 mM) | PanDDA run, DMSO background map: Hit (crystal soak 10 mM) | Total number of conformations | 2*(1-BDC) (%) | Refined ligand occupancy (%) | Binding site [2] | X-ray crystal structure [3] | Binding site [4] | PanDDA run, overall: Modeling comment (crystal soak 10 mM) | PanDDA run, TFA/DMSO background map: 1-BDC [5] | PanDDA run, TFA/DMSO background map: Hit [5] | Phe132 loop open state |
| --- | --- | --- | --- | --- | --- | --- | --- | --- | --- | --- | --- | --- | --- | --- | --- | --- | --- |
| OCC(Nc1ncnc2[nH]ccc12)C1CCc2ccccc21 (stereo not drawn) [AVI-3693] | 16 | 0.22 | TRUE | TRUE | TRUE | 0.22 | TRUE | 2 | 44 | 60 | Adenosine |  |  |  |  |  |  |
| OCC(Cc1ccccn1)Nc1ncnc2[nH]ccc12 (stereo not drawn) [AVI-3696] | 14 | 0.13 | TRUE | TRUE | TRUE | 0.13 | TRUE | 2 | 26 | 40 | Adenosine |  |  |  |  |  |  |
| OCC(O)C1CCCN1c1ncnc2[nH]ccc12 (stereo not drawn) [AVI-3701] | 0 | 0.18 |  | TRUE |  | 0.18 | TRUE | 1 | 36 | 36 |  | TRUE | Adenosine |  |  |  |  |
| O=C(O)C(F)(F)F.OC[C@H]1CC2(CN1c1ncnc3[nH]ccc13)OCCO2 [AVI-3702] | 0 | 0.21 |  | TRUE |  | 0.21 | TRUE | 1 | 42 | 42 |  | TRUE | Adenosine |  |  |  |  |
| OCC(Cc1cncs1)Nc1ncnc2[nH]ccc12 (stereo not drawn) [AVI-3703] | 0 | 0.15 | TRUE | TRUE |  | 0.15 | TRUE | 1 | 30 | 30 | Adenosine |  |  |  |  |  |  |
| OCC(Cc1ccoc1)Nc1ncnc2[nH]ccc12 (stereo not drawn) [AVI-3705] | 0 | 0.21 | TRUE | TRUE |  | 0.21 | TRUE | 1 | 42 | 42 | Adenosine |  |  |  |  |  |  |
| O=C(O)C(F)(F)F.OCC(Cc1cccc(F)c1)Nc1ncnc2[nH]ccc12 (stereo not drawn) [AVI-3706] |  |  |  |  |  |  |  |  |  |  |  |  |  | TFA only |  |  |  |
| OCC1CC2(CCOCC2)CN1c1ncnc2[nH]ccc12 (stereo not drawn) [AVI-3707] | 0 | 0.21 |  | TRUE |  | 0.21 | TRUE | 1 | 42 | 42 |  | TRUE | Adenosine | Distal site, weak density, not modeled |  |  |  |
| OCC(COCc1ccccc1)Nc1ncnc2[nH]ccc12 (stereo not drawn) [AVI-3709] | 0 | 0.19 | TRUE | TRUE |  | 0.19 | TRUE | 2 | 38 | 38 | Adenosine |  |  |  |  |  |  |
| O=C(O)C(F)(F)F.OC[C@@H]1CC2(CC2)CN1c1ncnc2[nH]ccc12 [AVI-3710] | 0 | 0.26 |  | TRUE |  | 0.26 | TRUE | 2 | 52 | 52 |  | TRUE | Adenosine | Weak density for open state of Phe132 loop |  |  |  |
| OCC(Cc1cccs1)Nc1ncnc2[nH]ccc12 (stereo not drawn) [AVI-3711] | 0 | 0.21 | TRUE | TRUE |  | 0.21 | TRUE | 1 | 42 | 42 | Adenosine |  |  |  |  |  |  |
| O=C(O)C(F)(F)F.OCC1C2C=CC(C2)N1c1ncnc2[nH]ccc12 (stereo not drawn) [AVI-3712] |  |  |  | TRUE |  | 0.15 | TRUE |  |  |  |  |  |  | Weak density, not modeled | 0.05 | TRUE |  |
| CC(C)(C)C(O)CC(CO)Nc1ncnc2[nH]ccc12.O=C(O)C(F)(F)F (stereo not drawn) [AVI-3714] |  |  |  |  |  |  |  |  |  |  |  |  |  | TFA only |  |  |  |
| OCC(Nc1ncnc2[nH]ccc12)c1ccccc1 (stereo not drawn) [AVI-3715] | 0 | 0.18 | TRUE | TRUE |  | 0.18 | TRUE | 1 | 36 | 36 | Adenosine |  |  |  |  |  |  |
| OCC1COCCN1c1ncnc2[nH]ccc12 (stereo not drawn) [AVI-3717] | 0 | 0.14 |  | TRUE |  | 0.14 | TRUE | 2 | 28 | 28 |  | TRUE | Adenosine |  |  |  |  |
| CC(C)(C)C1CCC(CO)N(c2ncnc3[nH]ccc23)C1 (stereo not drawn) [AVI-3719] | 0 | 0.08 |  | TRUE |  | 0.08 | TRUE | 1 | 16 | 16 |  | TRUE | Adenosine |  |  |  | TRUE |
| CN1CCN(c2ncnc3[nH]ccc23)C(CO)C1 (stereo not drawn) [AVI-3721] | 0 | 0.06 |  | TRUE |  | 0.06 | TRUE | 2 | 12 | 12 |  | TRUE | Adenosine |  |  |  |  |
